According to US7338932B2, “Methods of modulating functions of polypeptide GalNAc-transferases and of screening test substances to find agents herefor, pharmaceutical compositions comprising such agents and the use of such agents for preparing medicaments” (Glycozym APS, priority 2000, dated 2008):
“Also recorded” adds a separate entry of the source. One block for each compound: values may come before it.

What was measured:
[1] = biological target: Helix Pomatia lectin (HPA) (Helix pomatia, UniProt Q2F1K8); experiment: Direct binding ELISA, competitive inhibition, Helix Pomatia lectin control; settings: read-out: Concentration required for 50% inhibition (IC50), HPA; control plant lectin
Excerpt: Glycopeptides were purified by C-18 reverse phase HPLC. Peptides were custom synthesized by Neosystems (Strasbourg). Biotinylated Helix Pomatia lectin (HPA) was from KemEnTec (Denmark). Anti-MUC1 HMFG2 monoclonal antibody was a generous gift from Joyce Taylor-Papadimitriou. Anti-MUC1 SE5 monoclonal antibody was developed by immunizing Balb/c mice with 60-mer MUC1 tandem repeat peptide glycosylated with 5 moles GalNAc per repeat. Monoclonal antibodies to the lectin domains of human GalNAc-T2 and -T4 were developed as previously described^8, 63.
Direct binding ELISA assay was developed as follows: Polystyrene microtiter plates (Maxisorb, Nunc, Denmark) were coated with peptides or enzymatically glycosylated glycopeptides in PBS overnight at 4° C. Plates were washed and blocked with 0.1% Tween20 and 0.2% BSA in PBS for 1 h at room temperature, followed by incubation with biotinylated proteins in PBS with 0.05% Tween20 for 2 h at room temperature. After four washes with PBS, plates were incubated with 1:2,000 dilution streptavidin-HRP (Sigma) in PBS for 30 min at room temperature and washed four times with PBS. Development was performed with 0.5 mg/ml o-phenylenediamine and 0.02% H2O2 at room temperature for 15 min, and reaction stopped by adding 100 μl/well of 0.5 N H2SO4. Competitive inhibition assays were done at end-point titers of GalNAc-transferase proteins with one hour preincubations with inhibitor.
Inhibition experiments were used to further define the binding specificity of GalNAc-T2 and -T4 secreted soluble enzymes as well as lectin domains compared to Helix Pomatia lectin (Table VII).

[2] = system: CHOldlD/MUC1F-clone2 cells; experiment: Cell surface expression of MUC1 by immunocytology; type: cell-based, Chinese Hamster; settings: 1 mM; cells grown in GalNAc; FIG. 13
Procedure: We therefore investigated the effect of treatment with GalNAcα-benzyl of CHOldlD/MUC1F-clone2 cells grown in the presence of GalNAc. CHOldlD/MUC1F-clone2 cells were seeded in 6 well plates at a density of 0.2×10^6 per well and were grown for 6 hours in Hams F12 medium with serum until approximately 30% subconfluent. […] After 18 hours, the medium was replaced with fresh Optimem containing the sugars and benzyl derivatives as above and grown for 12-48 hours. Initially we analyzed surface expression of MUC1 by immunocytology. Cells were washed once in PBS-CMF (phosphate buffered saline Calcium and Magnesium free) after carefully removing the medium from the wells and subsequently fixed in 2 ml 3% paraformaldehyde at 25° C. for 20 min followed by three washes with PBS-CMF 3 times. Free aldehyde groups were quenched by incubating in 2 mL 50 mM Ammonium Chloride in PBS-CMF for 10 min, followed by three washes with PBS-CMF and three washes with 5 min incubations each with PBS-CMF containing 0.2% Fish Skin Gelatin (Sigma). Immunostaining of cells was performed by incubation with monoclonal antibodies for 40 min at 25° C., followed by three washes with PBS-CMF and three washes of 5 min each with PBS-CMF containing 0.2% Fish Skin Gelatin. […]

[3] = system: CHOldlD/MUC1F-clone2 cells; experiment: MUC1 expression in cell lysates, immunoprecipitation and SDS-PAGE western blot; type: cell-based, Chinese Hamster; settings: 2 mM
Procedure: We next analysed the expression of MUC1 produced by CHOldlD/MUC1F-clone2 cells by SDS-PAGE western analysis. […] Cells were further treated with 2 mM GalNAcα-benzyl, GlcNAcα-benzyl or no inhibitor. Cells were washed and lysed at 24 or 48 hours and the lysates subjected to immunoprecipitation with monoclonal antibody HMFG2, which broadly recognize MUC1 glycoforms. Immunoprecipitates were analysed by SDS-PAGE and western blot using HMFG2 antibody to detect MUC1 expression. […] In striking contrast, treatment with GalNAcα-benzyl had significant effect after 48 hours. […] This indicates some heterogeneity in glycosylation.
As shown in Examples 8 and 9, polypeptide GalNAc-transferases contain lectin domains with binding properties for GalNAc-peptides including GalNAc-MUC1 peptides. […] GalNAcβ-benzyl, the β-anomeric configuration of GalNAc-benzyl (there is a β linkage between the N-acetylgalactosamine and the benzyl ring), was custom synthesized by Alberta Research Council (Canada), and its structure was confirmed by mass spectrometry and ^1H-NMR. […] Cells were then treated with 2 mM GalNAcα-benzyl, GalNAcβ-benzyl, or GlcNAcα-benzyl as control (GlcNAcα-benzyl was shown in Example 10 to have no effect). Cells were washed and lysed as described above after 36 hours and the lysates subjected to immunoprecipitation with anti-MUC1 monoclonal antibodies HMFG2 or 5E5. […] FIG. 17 illustrates the same experiments as in FIG. 16 except that the detection antibody is 5E5 and only Tn and STn MUC1 glycoforms are visualised.

[4] = 48 hours, IP HMFG2, blot HMFG2, grown in GalNAc or Gal and GalNAc

- IC50 [1]: 500 µM
SMILES: CC(=O)N[C@H]1[C@@H](OCc2ccccc2)O[C@H](CO)[C@H](O)[C@@H]1O [GalNAcα-benzyl]
- Cell surface expression of MUC1 [2]: strong inhibition
- MUC1 expression ([3]; 24 hours, IP HMFG2, blot HMFG2): no significant effect
- MUC1 expression ([3]; 36 hours, blot 5E5, cells grown in GalNAc): strong inhibition
- MUC1 expression [3, 4]: significant reduction in MUC1 expression
- SDS-PAGE migration of MUC1 (O-glycosylation) ([3]; 48 hours, cells grown in Gal and GalNAc, blot HMFG2): significant shift in migration

SMILES: CC(=O)N[C@H]1[C@@H](OCc2ccccc2)O[C@H](CO)[C@@H](O)[C@@H]1O [GlcNAcα-benzyl]
- IC50 [1]: 2000 µM
- Cell surface expression of MUC1 [2]: no inhibition
- MUC1 expression [3, 4]: produced the same glycoforms at similar intensity as cells without treatment; also recorded: no effect
